The results in this text go back to patent US10233198B2, “Pro-drugs of NSAIAs with very high skin and membranes penetration rates and their new medicinal uses” (Techfields Pharma Co., Ltd., priority 2007, dated 2019).

The conditions of data set [1]: in vivo.
Description: The in vivo rates of penetration of pro-drugs and their parent drugs through the skin of intact rats were compared. The donor consisted of 20% pro-drugs or their parent drugs in 1 ml of ethanol applied to about 5 cm^2 area on the backs of rats (˜200 g). After 4 hours, the rats were killed, and 5 ml of methanol was added to 1 ml of blood, 1 g of liver, 1 g of kidney, or 1 g of brain (liver, kidney or brain was washed with pH 7.2 buffer for three times) and the mixtures were homogenized. The samples were then centrifuged for 5 min and analyzed using HPLC.
After 4 hours, the rats were killed, and 5 ml of methanol was added to 1 ml of blood, 1 g of liver, 1 g of kidney, or 1 g of brain (liver, kidney or brain was washed with pH 7.2 buffer for three times) and the mixtures were homogenized.
For the next data set, the system named is Chinese White rabbits. The data set is described as follows: Malassezia-induced psoriasis-like lesions. Type of data set: in vivo. To be noted: 5% aqueous solution applied twice per day; 10 days after the application. From the text: COX-1 and COX-2 play a very important role in animal immune-responses. NSAIAs inhibite COX-1 and COX-2. The pro-drugs of NSAIAs in this invention may be very useful for treating psoriasis, discoid lupus erythematosus, systemic lupus erythematosus (SLE), and other autoimmune diseases. Heavy suspensions of Malassezia [Rosenberg, E. W., et al., Mycopathologia, 72, 147-154 (1980)] were applied to the shaved skin on the backs of the Chinese white rabbits (n=4×6) twice (at 7 am and 7 pm) per day for 2 weeks, lesions similar to psoriasis resulted.

The subject of data set [2] is SLAC/GK rats, type 2 diabetes. Put plainly: Blood glucose in type 2 diabetic rats, transdermal. It counts as in vivo. To be noted: no fasting; for Blood glucose, diabetic rats, Baseline: baseline of the treatment group; for Blood glucose, diabetic rats, Average: transdermal, equal to 20 mg/kg of NSAIAs once per day for 5 weeks, measured every 3 days, second to fifth week. From the text: (§1) The pro-drugs in this invention lower blood glucose levels in rat models (SLAC/GK, type 2 diabetes, n=7). 50% acetone solution of diethylaminoethyl acetylsalicylate.acetylsaficylic acid salt (P-1, in acetone); 4-acetamidophenyl salicylyldimethylaminobutyrate.HCl (P-6), diethylaminoethyl 5-(2,4-difluorophenyl) acetylsalicylate.5-(2,4-difluorophenyl) acetylsalicylic acid salt (P-8), diethylaminoethyl salicylsalicylate.AcOH (P-9), diethylaminoethyl salicylate.AcOH (P-10), diethylaminoethyl 5-acetamido-acetylsalicylate (P-58), diethylaminoethyl acetylsalicylsalicylate. acetylsalicylsalicylic acid salt (P-59), diethylaminoethyl acetylsalicylsalicylate. acetylsalicylsalicylsalicylic acid salt (P-60) (equal to of 20 mg/kg of NSAIAs) were administered transdermally to the backs (about 1.5 cm^2) of rats (fur was shaved) once per day (at 8 am) for 5 weeks. The blood glucose levels were measured once every 3 days at 4 pm (no fasting) from the second week to the fifth week. The blood lipid levels were measured at the end of the fifth week.

Data set [3] relates to SLAC/GK rats, type 2 diabetes. Put plainly: Blood lipid levels in type 2 diabetic rats, oral with food. Type of data set: in vivo. From the text:
The pH of stomach juice is 1-3. The negative charge on the phosphate head group of membrane is neutralized by the proton and the positive charge on the amino groups of these pro-drugs cannot bond to the phosphate head group of membranes, then the pro-drugs cannot pass through the wall of the stomach and will not hurt or upset the stomach. The pH of the duodenum is about 5-7 and the pro-drugs can pass through the mucosa of duodenum. The pancreas is nearby and large amount of the pro-drugs will enter there before going to the liver, kidneys, and the general circulation where the drug will be metabolized, so only very low dose of these pro-drugs are needed and very few and low side effects will be caused. The 20% acetone solution of diethylaminoethyl acetylsalicylate.acetylsalicylic acid salt (P-1, in acetone); 4-acetamidophenyl salicylyldimethylaminobutyrate.HCl (P-6), diethylaminoethyl 5-(2,4-difluorophenyl) acetylsalicylate.5-(2,4-difluorophenyl) acetylsalicylic acid salt (P-8), diethylaminoethyl salicylsalicylate.AcOH (P-9), diethylaminoethyl salicylate.AcOH (P-10), diethylaminoethyl 5-acetamido-acetylsalicylate (P-58), diethylaminoethyl acetylsalicylsalicylate. acetylsalicylsalicylic acid salt (P-59), diethylaminoethyl acetylsalicylsalicylate. acetylsalicylsalicylsalicylic acid salt (P-60) (equal to of 15 mg/kg of NSAIAs) were mixed with food and were orally administered to the rats (SLAC/GK, type 2 diabetes, n=7) with food every day for 5 weeks. The blood glucose levels were measured once every 3 days at 3 pm (no fasting) from the second week to the fifth week. The blood lipid levels were measured at the end of the fifth week.

Data set [4] concerns SLAC:NOD-IDDM mice, type 1 diabetes. The data set is described as follows: Blood glucose in type 1 diabetic mice, transdermal. It counts as in vivo. To be noted: no fasting; for Blood glucose, type I diabetic mice, Baseline: baseline of the treatment group; for Blood glucose, type I diabetic mice, Average: transdermal, equal to 20 mg/kg of NSAIAs once per day for 7 weeks, fourth to seventh week. From the text:
The pro-drugs in this invention lower blood glucose levels in mouse models (SLAC:NOD-IDDM, type 1 diabetes, n=7). 20% acetone solution of diethylaminoethyl acetylsalicylate.acetylsalicylic acid salt (P-1, in acetone); 4-acetamidophenyl salicylyldimethylaminobutyrate.HCl (P-6), diethylaminoethyl 5-(2,4-difluorophenyl) acetylsalicylate.5-(2,4-difluorophenyl) acetylsalicylic acid salt (P-8), diethylaminoethyl salicylsalicylate.AcOH (P-9), diethylaminoethyl salicylate.AcOH (P-10), diethylaminoethyl 5-acetamido-acetylsalicylate (P-58), diethylaminoethyl acetylsalicylsalicylate. acetylsalicylsalicylic acid salt (P-59), diethylaminoethyl acetylsalicylsalicylate. acetylsalicylsalicylsalicylic acid salt (P-60) (equal to of 20 mg/kg of NSAIAs) were administered transdermally to the backs (about 1 cm^2) of mice (fur was shaved) once per day (at 8 am) for 7 weeks. The blood glucose levels were measured once every 3 days at 3 pm (no fasting) from the fourth week to the seventh week.

In data set [5] the test system is SLAC/GK rats, type 2 diabetes. Put plainly: Blood lipid levels in type 2 diabetic rats, transdermal. It counts as in vivo. To be noted: for Triglycerides, Baseline: baseline of the treatment group; for Triglycerides, Average / Cholesterol (total), Average: end of fifth week, transdermal, equal to 20 mg/kg of NSAIAs once per day.
Description: as §1

A further data set relates to normal rats. Put plainly: Blood glucose in normal rats, transdermal. To be noted: no fasting; for Blood glucose, normal rats, Baseline: baseline of the treatment group; for Blood glucose, normal rats, Average: transdermal, equal to 20 mg/kg of NSAIAs once per day for 5 weeks, second to fifth week. Type of data set: in vivo.
Where [6] appears, read: baseline of the treatment group.
Setting [7] is: end of fifth week, oral with food, equal to 15 mg/kg of NSAIAs every day.

As to `CC(=O)Oc1ccccc1C(=O)O` [Aspirin], in data set [1], the “Drug found in rat tissues or plasma after topical application of the parent drug itself” value (“Drug found in rat tissues or plasma” for short) was “None of these drugs was found”.

As to `CC(=O)O.CC(C)Cc1ccc(C(C)C(=O)OCC2CCCNC2)cc1` (centres unmarked) [P-5, 3-piperidinemethyl 2-(ρ-isobutylphenyl) propionate.AcOH], the Psoriasis-like lesions entry in the data set on Chinese White rabbits is recorded as “the lesions were resolved”.

As to `CC(=O)Nc1ccc(OC(=O)c2ccccc2OC(=O)CCCN(C)C)cc1.Cl` [P-6, 4-acetamidophenyl salicylyldimethylaminobutyrate.HCl], in data set [2], the “Blood glucose, diabetic rats, Baseline” value turned out to be 16.7 ± 4 mmol/L and the “Blood glucose, diabetic rats, Average” value is 8.5 ± 2 mmol/L. In addition, in data set [3] (setting [6]), the “Cholesterol (HDL), Baseline” value is given as 1.8 ± 0.1 mmol/L and the “Triglycerides, Baseline” value is 5.9 ± 0.5 mmol/L. Moreover, in data set [4], the “Blood glucose, type I diabetic mice, Baseline” value was 27.7 ± 4 mmol/L and the “Blood glucose, type I diabetic mice, Average” value was 9.5 ± 2 mmol/L. The “Triglycerides, Baseline” value in data set [5] was determined as 6.3 ± 0.5 mmol/L. Also, in the data set with normal rats, the “Blood glucose, normal rats, Baseline” value stood at 6.8 ± 1 mmol/L and the “Blood glucose, normal rats, Average” value came to 6.5 ± 1 mmol/L.

`CC(=O)Oc1ccc(-c2ccc(F)cc2F)cc1C(=O)O.CCN(CC)CCOC(=O)c1cc(-c2ccc(F)cc2F)ccc1OC(C)=O` [P-8, diethylaminoethyl 5-(2,4-difluorophenyl) acetylsalicylate.5-(2,4-difluorophenyl) acetylsalicylic acid salt]: in data set [2], the “Blood glucose, diabetic rats, Baseline” value was 17.1 ± 3 mmol/L and the “Blood glucose, diabetic rats, Average” value is given as 8.1 ± 1 mmol/L. Besides, in data set [3] (setting [6]), the “Cholesterol (total), Baseline” value amounted to 7.4 ± 0.6 mmol/L and the “Triglycerides, Baseline” value is on record as 6.2 ± 0.7 mmol/L. Moreover, the “Cholesterol (total), Average” value in data set [3] (setting [7]) is on record as 5.1 ± 0.3 mmol/L. Besides, in data set [4], the “Blood glucose, type I diabetic mice, Baseline” value is 29.1 ± 5 mmol/L and the “Blood glucose, type I diabetic mice, Average” value stood at 9.1 ± 1 mmol/L. The “Triglycerides, Average” value in data set [5] is 2.1 ± 0.2 mmol/L. Besides, the “Blood glucose, normal rats, Baseline” value with normal rats worked out at 7.1 ± 1 mmol/L.

For the molecule `CC(=O)O.CCN(CC)CCOC(=O)c1ccccc1OC(=O)c1ccccc1O` [P-9, diethylaminoethyl salicylsalicylate.AcOH], the “Blood glucose, diabetic rats, Average” value in data set [2] was determined as 8.4 ± 1 mmol/L. Moreover, the “Cholesterol (total), Average” value in data set [3] (setting [7]) was determined as 5.3 ± 0.4 mmol/L. In addition, in data set [4], the “Blood glucose, type I diabetic mice, Baseline” value stood at 26.5 ± 4 mmol/L and the “Blood glucose, type I diabetic mice, Average” value was determined as 9.4 ± 1 mmol/L. Also, in data set [5], the “Triglycerides, Baseline” value stood at 5.7 ± 0.5 mmol/L and the “Triglycerides, Average” value was 2.6 ± 0.2 mmol/L. In the data set on normal rats, the “Blood glucose, normal rats, Baseline” value is recorded as 6.5 ± 1 mmol/L and the “Blood glucose, normal rats, Average” value came out at 6.7 ± 1 mmol/L.

Regarding `CC(=O)O.CCN(CC)CCOC(=O)c1ccccc1O` [P-10, diethylaminoethyl salicylate.AcOH], in data set [2], the “Blood glucose, diabetic rats, Baseline” value is 15.8 ± 3 mmol/L and the “Blood glucose, diabetic rats, Average” value was 8.2 ± 1 mmol/L. In data set [4], the “Blood glucose, type I diabetic mice, Baseline” value came out at 25.8 ± 3 mmol/L and the “Blood glucose, type I diabetic mice, Average” value came to 8.2 ± 1 mmol/L. Besides, in data set [5], the “Triglycerides, Baseline” value stood at 6.6 ± 0.6 mmol/L and the “Triglycerides, Average” value was 2.9 ± 0.2 mmol/L. In addition, the “Blood glucose, normal rats, Baseline” value in the data set on normal rats turned out to be 6.8 ± 1 mmol/L.

Take `CC(=O)O.CCN(CC)CCOC(=O)Cc1cc(C)c(C(=O)c2ccc(Cl)cc2)n1C` [P-14, diethylaminoethyl 5-(4-Chlorobenzoyl)-1,4-dimethyl-1H-pyrrole-2-acetate.AcOH]: the Psoriasis-like lesions result in the data set with Chinese White rabbits is recorded as “the lesions were resolved”.

For `CC(=O)O.CCc1cccc2c3c([nH]c12)C(CC)(CC(=O)OCCN(CC)CC)OCC3` (centres unmarked) [P-15, diethylaminoethyl 1,8-diethyl-1,3,4,9-tetrahydropyrano-[3,4-b]indole-1-acetate.AcOH], the Psoriasis-like lesions entry with Chinese White rabbits is “the lesions were resolved”.

For the molecule `CCN(CC)CCOC(=O)c1cc(NC(C)=O)ccc1OC(C)=O` [P-58, diethylaminoethyl 5-acetamido-acetylsalicylate], the “Blood glucose, diabetic rats, Baseline” value in data set [2] was 17.1 ± 3 mmol/L. Also, the “Triglycerides, Baseline” value in data set [3] (setting [6]) worked out at 5.9 ± 0.5 mmol/L. In data set [3] (setting [7]), the “Cholesterol (total), Average” value is on record as 4.9 ± 0.4 mmol/L and the “Triglycerides, Average” value worked out at 2.8 ± 0.2 mmol/L. In data set [4], the “Blood glucose, type I diabetic mice, Baseline” value turned out to be 27.1 ± 3 mmol/L and the “Blood glucose, type I diabetic mice, Average” value is given as 7.9 ± 1 mmol/L. For the same molecule, the “Cholesterol (total), Average” value in data set [5] came to 5.4 ± 0.4 mmol/L. Besides, the “Blood glucose, normal rats, Average” value in the data set on normal rats is on record as 7.1 ± 1 mmol/L.

`CC(=O)Oc1ccccc1C(=O)Oc1ccccc1C(=O)Oc1ccccc1C(=O)O.CCN(CC)CCOC(=O)c1ccccc1OC(=O)c1ccccc1OC(C)=O` [P-60, diethylaminoethyl acetylsalicylsalicylate. acetylsalicylsalicylsalicylic acid salt]: in data set [2], the “Blood glucose, diabetic rats, Baseline” value worked out at 15.5 ± 3 mmol/L and the “Blood glucose, diabetic rats, Average” value is 8.6 ± 1 mmol/L. Also, the “Triglycerides, Baseline” value in data set [3] (setting [6]) came to 6.2 ± 0.5 mmol/L. The “Cholesterol (total), Average” value in data set [3] (setting [7]) turned out to be 5.0 ± 0.3 mmol/L. In addition, in data set [4], the “Blood glucose, type I diabetic mice, Baseline” value was determined as 25.5 ± 3 mmol/L and the “Blood glucose, type I diabetic mice, Average” value is 8.6 ± 1 mmol/L. Also, in data set [5], the “Triglycerides, Baseline” value was found to be 5.7 ± 0.6 mmol/L and the “Cholesterol (total), Average” value stood at 5.2 ± 0.3 mmol/L. Further, in the data set on normal rats, the “Blood glucose, normal rats, Baseline” value is 6.6 ± 1 mmol/L and the “Blood glucose, normal rats, Average” value came to 7.5 ± 1 mmol/L.

Turning to `O=C(O)c1ccccc1O` [Salicylic acid], in data set [1] (rat, 4 h), the “Brain level of prodrug or metabolites” value was 30 ± 6 µg/g, the “Kidney level of prodrug or metabolites” value was 45 ± 6 µg/g, the “Liver level of prodrug or metabolites” value amounted to 30 ± 8 µg/g and the “Plasma level of prodrug or metabolites” value came to 80 ± 10 µg/mL.

With `O=C(O)Cc1ccccc1Nc1c(Cl)cccc1Cl` [diclofenac], in data set [1], the “Drug found in rat tissues or plasma” value is “None of these drugs was found”. In data set [1] (rat, 4 h), the “Brain level of prodrug or metabolite” value amounted to 40 ± 5 µg/g, the “Kidney level of prodrug or metabolite” value was determined as 48 ± 6 µg/g, the “Liver level of prodrug or metabolite” value came out at 25 ± 8 µg/g and the “Plasma level of prodrug or metabolite” value was found to be 75 ± 8 µg/mL.

In the case of `CC(C(=O)O)c1cccc(Oc2ccccc2)c1` (centres unmarked) [fenoprofen], the “Drug found in rat tissues or plasma” value in data set [1] is recorded as “None of these drugs was found”. In addition, in data set [1] (rat, 4 h), the “Brain level of prodrug or metabolite” value was 45 ± 5 µg/g, the “Kidney level of prodrug or metabolite” value was determined as 48 ± 6 µg/g, the “Liver level of prodrug or metabolite” value came out at 38 ± 8 µg/g and the “Plasma level of prodrug or metabolite” value was found to be 80 ± 8 µg/mL.

`CC(C)Cc1ccc(C(C)C(=O)O)cc1` (centres unmarked) [ibuprofen]: in data set [1], the “Drug found in rat tissues or plasma” value was “None of these drugs was found”. For the same molecule, in data set [1] (rat, 4 h), the “Brain level of prodrug or metabolite” value is 35 ± 5 µg/g, the “Kidney level of prodrug or metabolite” value came to 45 ± 6 µg/g, the “Liver level of prodrug or metabolite” value worked out at 35 ± 8 µg/g and the “Plasma level of prodrug or metabolite” value was 70 ± 8 µg/mL.
